Source: paper PMC3445516 (PLoS ONE, 2012)
Read-outs that look alike come from different tables or passages of the source.

Assays:
Assay in all cases: Ambit kinase profiling, competition binding
PRKD3 = molecular target: T1, PRKD3 (Homo sapiens, UniProt O94806)
T1 construct: purchased Ambit Biosciences (KINOMEscan)
T1 sequence (O94806 1-890): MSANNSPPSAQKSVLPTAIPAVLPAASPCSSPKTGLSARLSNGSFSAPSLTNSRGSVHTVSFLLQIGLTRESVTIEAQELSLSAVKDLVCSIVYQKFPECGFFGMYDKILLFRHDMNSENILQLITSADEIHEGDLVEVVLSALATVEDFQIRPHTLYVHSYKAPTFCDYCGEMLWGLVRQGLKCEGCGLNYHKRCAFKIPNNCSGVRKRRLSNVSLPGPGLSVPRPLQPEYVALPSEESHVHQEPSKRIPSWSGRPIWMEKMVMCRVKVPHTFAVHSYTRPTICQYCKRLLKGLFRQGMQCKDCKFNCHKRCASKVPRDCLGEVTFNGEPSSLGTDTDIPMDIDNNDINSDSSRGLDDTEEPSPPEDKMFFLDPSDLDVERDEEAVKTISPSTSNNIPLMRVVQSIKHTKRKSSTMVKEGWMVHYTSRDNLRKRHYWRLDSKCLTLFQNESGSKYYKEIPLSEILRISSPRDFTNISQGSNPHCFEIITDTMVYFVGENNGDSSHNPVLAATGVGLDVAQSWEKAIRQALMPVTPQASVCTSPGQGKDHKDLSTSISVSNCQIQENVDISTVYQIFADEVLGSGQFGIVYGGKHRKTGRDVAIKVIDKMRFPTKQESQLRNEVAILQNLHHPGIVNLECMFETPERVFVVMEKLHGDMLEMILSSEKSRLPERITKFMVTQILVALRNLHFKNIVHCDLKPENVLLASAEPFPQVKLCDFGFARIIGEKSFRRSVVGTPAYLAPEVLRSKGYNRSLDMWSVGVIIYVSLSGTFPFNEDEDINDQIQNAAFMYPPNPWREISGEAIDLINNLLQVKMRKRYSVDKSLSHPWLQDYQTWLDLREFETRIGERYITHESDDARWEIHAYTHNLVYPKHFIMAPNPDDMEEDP
Experimental: (§1) Also included in the kinase profile are four isoforms of PKC (δ, ε, η, θ) and eight isoforms of CAMKs (CAMKIα, δ, γ; CAMKIIα, β, δ, γ; CAMK4).
(§2) The global kinase profiling experiment was performed by Ambit Biosciences.

CAMKIIα = molecular target: T2, CAMKIIα (Homo sapiens, UniProt Q9UQM7); details: for competition: CAMKIIα, 10 µM
T2 construct: purchased Ambit Biosciences (KINOMEscan)
T2 sequence (Q9UQM7 whole entry): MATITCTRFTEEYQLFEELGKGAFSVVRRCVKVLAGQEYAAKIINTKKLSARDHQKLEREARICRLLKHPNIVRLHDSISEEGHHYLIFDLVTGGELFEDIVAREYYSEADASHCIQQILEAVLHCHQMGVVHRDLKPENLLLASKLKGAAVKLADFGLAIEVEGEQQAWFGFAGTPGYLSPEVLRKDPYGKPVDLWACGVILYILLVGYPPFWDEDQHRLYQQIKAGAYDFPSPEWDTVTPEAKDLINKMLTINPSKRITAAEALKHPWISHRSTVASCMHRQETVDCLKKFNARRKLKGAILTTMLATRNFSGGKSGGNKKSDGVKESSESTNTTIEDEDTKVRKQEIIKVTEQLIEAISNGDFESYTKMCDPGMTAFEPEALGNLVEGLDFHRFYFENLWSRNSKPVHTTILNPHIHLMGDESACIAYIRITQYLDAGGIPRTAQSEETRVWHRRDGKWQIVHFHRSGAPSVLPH
Experimental: as §1, §2

CAMKIIδ = molecular target: T3, CAMKIIδ (Homo sapiens, UniProt Q13557); details: for competition: CAMKIIδ, 10 µM
T3 construct: purchased Ambit Biosciences (KINOMEscan)
T3 sequence (Q13557 whole entry): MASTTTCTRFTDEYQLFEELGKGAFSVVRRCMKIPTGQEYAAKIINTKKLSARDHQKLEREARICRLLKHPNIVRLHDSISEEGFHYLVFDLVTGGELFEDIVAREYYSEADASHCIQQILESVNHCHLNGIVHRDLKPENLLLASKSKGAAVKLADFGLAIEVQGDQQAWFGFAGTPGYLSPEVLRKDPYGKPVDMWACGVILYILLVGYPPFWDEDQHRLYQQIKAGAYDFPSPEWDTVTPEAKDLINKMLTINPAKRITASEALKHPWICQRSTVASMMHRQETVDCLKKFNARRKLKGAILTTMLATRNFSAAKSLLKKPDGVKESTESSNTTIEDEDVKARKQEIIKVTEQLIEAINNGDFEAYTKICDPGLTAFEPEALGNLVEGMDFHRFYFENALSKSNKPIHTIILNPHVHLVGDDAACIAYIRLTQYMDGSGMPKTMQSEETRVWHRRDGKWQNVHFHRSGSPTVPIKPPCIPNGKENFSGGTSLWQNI
Experimental: as §1, §2

CAMKIIγ = molecular target: T4, CAMKIIγ (Homo sapiens, UniProt Q13555); details: for competition: CAMKIIγ, 10 µM
T4 construct: purchased Ambit Biosciences (KINOMEscan)
T4 sequence (Q13555 whole entry): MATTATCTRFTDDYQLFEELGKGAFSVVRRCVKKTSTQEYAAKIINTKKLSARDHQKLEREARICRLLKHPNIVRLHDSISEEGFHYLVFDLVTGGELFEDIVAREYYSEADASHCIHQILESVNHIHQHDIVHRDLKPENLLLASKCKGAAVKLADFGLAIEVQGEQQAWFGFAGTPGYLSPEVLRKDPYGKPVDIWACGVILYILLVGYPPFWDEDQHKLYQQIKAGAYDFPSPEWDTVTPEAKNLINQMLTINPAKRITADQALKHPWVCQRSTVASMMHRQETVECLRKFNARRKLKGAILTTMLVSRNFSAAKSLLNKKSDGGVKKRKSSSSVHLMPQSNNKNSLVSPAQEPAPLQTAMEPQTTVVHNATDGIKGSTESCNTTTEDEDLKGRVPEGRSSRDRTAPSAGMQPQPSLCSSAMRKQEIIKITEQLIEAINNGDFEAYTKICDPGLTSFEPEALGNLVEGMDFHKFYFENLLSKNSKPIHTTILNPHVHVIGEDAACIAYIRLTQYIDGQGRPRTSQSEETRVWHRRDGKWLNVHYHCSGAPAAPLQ
Experimental: as §1, §2

FLT3(D835Y) = molecular target: T5, FLT3(D835Y) (Homo sapiens, UniProt P36888, D835Y)
T5 construct: purchased Ambit Biosciences (KINOMEscan)
T5 sequence (P36888 27-993 D835Y): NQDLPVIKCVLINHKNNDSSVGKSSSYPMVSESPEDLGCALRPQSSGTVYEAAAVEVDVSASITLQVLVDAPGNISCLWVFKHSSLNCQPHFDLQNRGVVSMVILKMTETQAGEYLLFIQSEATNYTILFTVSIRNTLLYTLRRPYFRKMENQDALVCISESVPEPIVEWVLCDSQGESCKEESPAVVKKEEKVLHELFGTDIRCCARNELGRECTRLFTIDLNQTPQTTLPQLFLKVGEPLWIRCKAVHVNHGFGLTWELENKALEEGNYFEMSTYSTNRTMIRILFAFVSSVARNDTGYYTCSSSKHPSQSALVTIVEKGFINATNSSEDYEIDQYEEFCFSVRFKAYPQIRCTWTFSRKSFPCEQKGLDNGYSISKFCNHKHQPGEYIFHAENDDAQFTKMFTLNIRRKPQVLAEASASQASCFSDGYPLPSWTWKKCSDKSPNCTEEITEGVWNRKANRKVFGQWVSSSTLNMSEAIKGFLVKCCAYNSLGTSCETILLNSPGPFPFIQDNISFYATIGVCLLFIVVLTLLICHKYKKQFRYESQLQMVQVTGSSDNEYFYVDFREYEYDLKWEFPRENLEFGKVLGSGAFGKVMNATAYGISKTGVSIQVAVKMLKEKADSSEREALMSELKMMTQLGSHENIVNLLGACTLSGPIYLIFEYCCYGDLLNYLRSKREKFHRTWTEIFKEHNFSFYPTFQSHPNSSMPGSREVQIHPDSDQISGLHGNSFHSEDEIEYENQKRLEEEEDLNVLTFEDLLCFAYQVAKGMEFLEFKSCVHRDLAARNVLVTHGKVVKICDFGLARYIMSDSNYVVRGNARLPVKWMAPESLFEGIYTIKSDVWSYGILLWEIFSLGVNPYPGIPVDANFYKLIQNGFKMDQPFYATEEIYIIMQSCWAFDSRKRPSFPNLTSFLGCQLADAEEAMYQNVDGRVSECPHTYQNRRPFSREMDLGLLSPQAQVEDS
Experimental: as §1, §2

GSK3B = molecular target: T6, GSK3B (Homo sapiens, UniProt P49841)
T6 construct: purchased Ambit Biosciences (KINOMEscan)
T6 sequence (P49841 whole entry): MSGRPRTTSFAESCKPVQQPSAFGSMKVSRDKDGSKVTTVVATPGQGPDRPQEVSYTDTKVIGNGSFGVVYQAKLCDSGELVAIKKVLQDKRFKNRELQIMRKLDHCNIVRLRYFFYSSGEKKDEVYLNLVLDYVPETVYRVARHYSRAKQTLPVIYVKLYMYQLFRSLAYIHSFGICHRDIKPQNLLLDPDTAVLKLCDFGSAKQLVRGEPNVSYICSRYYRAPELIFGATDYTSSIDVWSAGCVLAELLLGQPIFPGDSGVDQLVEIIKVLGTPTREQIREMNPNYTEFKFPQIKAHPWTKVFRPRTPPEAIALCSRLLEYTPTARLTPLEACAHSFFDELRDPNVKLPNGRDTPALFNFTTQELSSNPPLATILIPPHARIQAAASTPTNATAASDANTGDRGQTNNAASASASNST
Experimental: as §1, §2

EGFR(L861Q) = molecular target: T7, EGFR(L861Q) (Homo sapiens, UniProt P00533, L861Q); details: for % Competition: 10 µM
T7 construct: purchased Ambit Biosciences (KINOMEscan)
Experimental: as §1, §2

[1] = molecular target: T8, EGFR(L747-E749del, A750P) (Homo sapiens, UniProt P00533, A750P/DEL747-749); details: for % Competition: 10 µM
T8 construct: purchased Ambit Biosciences (KINOMEscan)
Experimental: as §1, §2

EGFR = molecular target: T9, EGFR (Homo sapiens, UniProt P00533); details: for % Competition: 10 µM
T9 construct: purchased Ambit Biosciences (KINOMEscan)
Experimental: as §1, §2

ACVR2B = molecular target: T10, ACVR2B (Homo sapiens, UniProt Q13705); details: for % Competition: 10 µM
T10 construct: purchased Ambit Biosciences (KINOMEscan)
T10 sequence (Q13705 19-512): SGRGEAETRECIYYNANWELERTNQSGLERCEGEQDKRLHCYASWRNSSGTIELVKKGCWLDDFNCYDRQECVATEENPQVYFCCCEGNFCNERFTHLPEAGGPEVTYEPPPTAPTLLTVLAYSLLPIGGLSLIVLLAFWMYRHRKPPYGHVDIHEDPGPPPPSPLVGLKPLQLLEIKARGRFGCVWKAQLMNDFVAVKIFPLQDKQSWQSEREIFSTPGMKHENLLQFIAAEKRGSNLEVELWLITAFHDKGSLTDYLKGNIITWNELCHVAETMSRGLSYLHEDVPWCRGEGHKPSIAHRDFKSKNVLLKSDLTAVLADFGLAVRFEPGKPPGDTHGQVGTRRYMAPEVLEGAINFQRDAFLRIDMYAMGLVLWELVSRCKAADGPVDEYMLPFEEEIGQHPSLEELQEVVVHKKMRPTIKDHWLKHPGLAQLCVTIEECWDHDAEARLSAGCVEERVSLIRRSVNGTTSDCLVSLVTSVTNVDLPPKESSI
Experimental: as §1, §2

CDK3 = molecular target: T11, CDK3 (Homo sapiens, UniProt Q00526); details: for % Competition: 10 µM
T11 construct: purchased Ambit Biosciences (KINOMEscan)
T11 sequence (Q00526 whole entry): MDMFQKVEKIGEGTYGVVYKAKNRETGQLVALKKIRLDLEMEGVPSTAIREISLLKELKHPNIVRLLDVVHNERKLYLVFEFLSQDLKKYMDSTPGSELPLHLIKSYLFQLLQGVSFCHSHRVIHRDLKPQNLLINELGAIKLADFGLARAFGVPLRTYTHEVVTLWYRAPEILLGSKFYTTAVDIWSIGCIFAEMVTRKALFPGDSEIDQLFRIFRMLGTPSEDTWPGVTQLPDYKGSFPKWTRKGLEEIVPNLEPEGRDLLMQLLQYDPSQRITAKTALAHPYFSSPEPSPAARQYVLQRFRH
Experimental: as §1, §2

RET(M918T) = molecular target: T12, RET(M918T) (Homo sapiens, UniProt P07949, M918T)
T12 construct: purchased Ambit Biosciences (KINOMEscan)
T12 sequence (P07949 29-1114 M918T): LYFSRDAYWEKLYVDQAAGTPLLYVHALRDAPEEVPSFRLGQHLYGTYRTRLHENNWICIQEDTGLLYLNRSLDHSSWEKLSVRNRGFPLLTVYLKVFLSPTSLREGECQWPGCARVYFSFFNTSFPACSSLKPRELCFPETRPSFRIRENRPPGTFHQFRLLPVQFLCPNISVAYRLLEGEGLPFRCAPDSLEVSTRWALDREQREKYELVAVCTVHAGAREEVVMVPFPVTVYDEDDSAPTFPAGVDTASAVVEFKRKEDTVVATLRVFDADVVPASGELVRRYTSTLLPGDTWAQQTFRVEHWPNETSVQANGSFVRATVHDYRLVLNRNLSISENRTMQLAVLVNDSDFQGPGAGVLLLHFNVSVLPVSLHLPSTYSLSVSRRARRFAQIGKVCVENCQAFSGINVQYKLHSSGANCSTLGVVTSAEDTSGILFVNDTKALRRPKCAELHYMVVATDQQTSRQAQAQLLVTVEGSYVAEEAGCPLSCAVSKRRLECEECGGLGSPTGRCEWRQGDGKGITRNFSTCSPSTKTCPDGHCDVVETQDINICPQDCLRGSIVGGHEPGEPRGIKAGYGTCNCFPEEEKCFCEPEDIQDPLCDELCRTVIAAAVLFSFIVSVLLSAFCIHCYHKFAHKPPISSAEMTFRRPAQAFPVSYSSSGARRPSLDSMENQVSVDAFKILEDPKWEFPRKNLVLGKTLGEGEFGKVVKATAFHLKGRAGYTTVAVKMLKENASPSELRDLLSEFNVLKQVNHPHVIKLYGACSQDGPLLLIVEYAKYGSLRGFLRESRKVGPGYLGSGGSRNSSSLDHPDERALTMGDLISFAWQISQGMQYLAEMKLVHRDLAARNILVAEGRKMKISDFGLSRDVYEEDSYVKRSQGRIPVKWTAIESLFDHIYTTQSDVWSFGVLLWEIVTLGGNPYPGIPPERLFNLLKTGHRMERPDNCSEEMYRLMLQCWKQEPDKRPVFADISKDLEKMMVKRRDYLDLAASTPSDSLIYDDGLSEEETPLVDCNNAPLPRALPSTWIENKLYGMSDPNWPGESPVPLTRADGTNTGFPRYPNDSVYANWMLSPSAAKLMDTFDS
Experimental: as §1, §2

BRAF(V600E) = molecular target: T13, BRAF(V600E) (Homo sapiens, UniProt P15056, V600E)
T13 construct: purchased Ambit Biosciences (KINOMEscan)
T13 sequence (P15056 whole entry V600E): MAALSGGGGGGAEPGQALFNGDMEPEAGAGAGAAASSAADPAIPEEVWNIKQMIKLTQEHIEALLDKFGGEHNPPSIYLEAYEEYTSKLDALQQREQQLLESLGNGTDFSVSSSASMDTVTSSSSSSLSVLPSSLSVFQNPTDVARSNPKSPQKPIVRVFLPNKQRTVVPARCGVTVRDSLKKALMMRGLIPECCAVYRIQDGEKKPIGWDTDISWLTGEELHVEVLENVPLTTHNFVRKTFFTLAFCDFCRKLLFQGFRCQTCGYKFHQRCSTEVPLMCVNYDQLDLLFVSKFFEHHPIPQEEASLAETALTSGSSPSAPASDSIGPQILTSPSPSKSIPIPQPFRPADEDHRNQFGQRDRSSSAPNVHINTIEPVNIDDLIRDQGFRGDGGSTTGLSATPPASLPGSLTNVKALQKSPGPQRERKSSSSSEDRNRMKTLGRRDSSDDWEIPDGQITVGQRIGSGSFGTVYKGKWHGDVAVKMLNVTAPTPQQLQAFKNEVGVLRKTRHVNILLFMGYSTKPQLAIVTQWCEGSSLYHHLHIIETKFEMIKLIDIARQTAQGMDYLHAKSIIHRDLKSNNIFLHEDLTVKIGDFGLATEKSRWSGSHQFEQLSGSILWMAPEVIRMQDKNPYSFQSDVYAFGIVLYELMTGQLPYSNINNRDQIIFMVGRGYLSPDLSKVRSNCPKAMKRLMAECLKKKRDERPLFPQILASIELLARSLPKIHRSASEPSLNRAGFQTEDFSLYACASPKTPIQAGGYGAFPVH
Experimental: as §1, §2

SYK = molecular target: T14, SYK (Homo sapiens, UniProt P43405); details: for % Competition: 10 µM
T14 construct: purchased Ambit Biosciences (KINOMEscan)
Experimental: as §1, §2

Fc1ccc(-c2c(-c3ccncc3)[nH]c3nccnc23)cc1 [Compound 122]
inhibition at 10 µM (PRKD3; PRKD3 (PKD3), 10 µM, read-out: % Competition): 98% | competition (CAMKIIα): < 50% | competition (CAMKIIδ): < 50% | competition (CAMKIIγ): < 50% | inhibition at 10 µM (FLT3(D835Y); FLT3(D835Y), 10 µM, read-out: % Competition): 76% | inhibition at 10 µM (GSK3B; GSK3B, 10 µM, read-out: % Competition): 96% | % Competition (EGFR(L861Q)): 97% | % Competition [1]: 98% | % Competition (EGFR): 95% | % Competition (ACVR2B): 92% | % Competition (CDK3): 92% | inhibition at 10 µM (RET(M918T); RET(M918T), 10 µM, read-out: % Competition): 68% | inhibition at 10 µM (BRAF(V600E); BRAF(V600E), 10 µM, read-out: % Competition): 97% | % Competition (SYK): 72%

CC(O)CNc1cc(-c2[nH]c3cccnc3c2-c2ccc(F)cc2)ccn1 (stereo not drawn) [Compound 140]
inhibition at 10 µM (PRKD3; read-out: % Competition): 96% | competition (CAMKIIα): < 50% | competition (CAMKIIδ): < 50% | competition (CAMKIIγ): < 50% | inhibition at 10 µM (FLT3(D835Y); read-out: % Competition): < 50% | inhibition at 10 µM (GSK3B; read-out: % Competition): < 50% | % Competition (EGFR(L861Q)): 87% | % Competition [1]: 90% | % Competition (EGFR): 76% | % Competition (ACVR2B): <50% | % Competition (CDK3): <50% | inhibition at 10 µM (RET(M918T); read-out: % Competition): < 50% | inhibition at 10 µM (BRAF(V600E); read-out: % Competition): 78% | % Competition (SYK): <50%

Fc1ccc(-c2c(-c3ccncc3)[nH]c3nccnc23)cc1 [RO1155697-000-005]
inhibition at 10 µM (PRKD3; PRKD3, compound concentration 10 uM, read-out: Percent Competition): 98% | inhibition at 10 µM (CAMKIIα; CAMK2A, compound concentration 10 uM, read-out: Percent Competition): < 50% | inhibition at 10 µM (CAMKIIδ; CAMK2D, compound concentration 10 uM, read-out: Percent Competition): < 50% | inhibition at 10 µM (CAMKIIγ; CAMK2G, compound concentration 10 uM, read-out: Percent Competition): < 50% | inhibition at 10 µM (FLT3(D835Y); FLT3(D835Y), compound concentration 10 uM, read-out: Percent Competition): 76% | inhibition at 10 µM (GSK3B; GSK3B, compound concentration 10 uM, read-out: Percent Competition): 96% | Percent Competition (EGFR(L861Q); compound concentration 10 uM): 97% | Percent Competition ([1]; compound concentration 10 uM): 98% | Percent Competition (EGFR; compound concentration 10 uM): 95% | Percent Competition (ACVR2B; compound concentration 10 uM): 92% | Percent Competition (CDK3; compound concentration 10 uM): 92% | inhibition at 10 µM (RET(M918T); RET(M918T), compound concentration 10 uM, read-out: Percent Competition): 68% | inhibition at 10 µM (BRAF(V600E); BRAF(V600E), compound concentration 10 uM, read-out: Percent Competition): 97% | Percent Competition (SYK; compound concentration 10 uM): 72%
